pIC50: −log10 of the molar value.
Key:
[1] = system: Stat5 phosphorylation in NK-92 cells; assay: Western blotting assay for Stat5; format: cell-based; details: NK92, 1 hour, IL-2 stimulation, read-out: Stat5 inhibition
Experimental: (§1) All cell lines were obtained from the American Type Culture Collection and were maintained at 37° C. with 5% CO2. Ramos cell line was maintained in media supplemented with 10% fetal bovine serum, penicillin (100 units/mL) and streptomycin (100 μg/mL). NK-92 cell line was maintained in media supplemented with 10% fetal bovine serum and 10% horse serum, penicillin (100 units/mL) and streptomycin (100 μg/mL), IL-2 10 ng/mL. Goat F(ab′)2 Anti-Human IgM-UNLB was obtained from SouthernBiotech. IL-2 was obtained from Peprotech.
NK-92 cells were treated with compounds at the dosed indicated for 1 hour in incubator, followed by the IL-2 stimulation for 15 minutes. Cells were then collected and lysed to prepare the cellular extraction. Western blots were performed on cell lysate using Phospho-Jak3, Jak3, Phospho-Stat5, Stat5 antibodies (Cell Signaling Technology). The intensity of blotting band was acquired using Image Lab (Bio-Rad) software, and the IC50 of target was generated with GraphPad Prism.

[2] = target: T1, Btk (Tyr223) phosphorylation in Ramos cells (Homo sapiens, UniProt Q06187); assay: Western blotting assay for Btk (Example 73); format: cell-based; details: 45 min, 6 μg/mL anti-IgM, read-out: Btk Inhibition
T1 construct: endogenous in cells; host or cells: Ramos cells (ATCC)
T1 sequence (Q06187 whole entry): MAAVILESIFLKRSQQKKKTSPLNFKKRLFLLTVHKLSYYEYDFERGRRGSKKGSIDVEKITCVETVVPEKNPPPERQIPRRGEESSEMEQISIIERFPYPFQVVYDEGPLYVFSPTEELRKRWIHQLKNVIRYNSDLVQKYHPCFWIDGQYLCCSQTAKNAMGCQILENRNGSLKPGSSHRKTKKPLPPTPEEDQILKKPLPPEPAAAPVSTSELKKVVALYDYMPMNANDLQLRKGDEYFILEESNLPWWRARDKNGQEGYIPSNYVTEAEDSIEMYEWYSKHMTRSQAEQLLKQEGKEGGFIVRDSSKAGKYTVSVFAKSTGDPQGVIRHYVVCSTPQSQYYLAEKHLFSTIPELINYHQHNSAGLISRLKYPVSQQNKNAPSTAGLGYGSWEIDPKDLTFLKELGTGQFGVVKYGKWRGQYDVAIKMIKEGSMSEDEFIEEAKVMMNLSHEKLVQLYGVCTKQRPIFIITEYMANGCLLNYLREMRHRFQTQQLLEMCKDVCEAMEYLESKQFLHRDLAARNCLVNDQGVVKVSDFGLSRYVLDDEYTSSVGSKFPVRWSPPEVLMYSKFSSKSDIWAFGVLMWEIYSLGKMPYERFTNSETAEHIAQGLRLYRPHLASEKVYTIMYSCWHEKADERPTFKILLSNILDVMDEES
Experimental: as §1
Ramos cells were treated with compounds at indicated doses for 45 min at room temperature, followed by stimulation of 6 μg/mL of anti-IgM for 30 min, and then lysed. Western blots were performed on the cell lysate using Phospho-Btk (Tyr223), Phospho-Btk (Tyr551), Btk, Phospho-PLCγ2 (Tyr1217), PLCγ2, Phospho-p44/42 MAPK (Erk1/2) (Thr202/Tyr204) and p44/42 MAPK (Erk1/2) antibodies (Cell Signaling Technology). The density of blotting band was acquired using ImageJ software, and the IC50 of Btk (Tyr223) phosphorylation was fitted using a non-linear regression model by GraphPad Prism.

Row | Compound | pIC50 [1] | pIC50 [2]
1 | C=CCN(CCOC)c1ccc(Nc2ncc(OC)c(Oc3cccc(NC(=O)C=C)c3)n2)cc1 [Compound I-39a] | ≤ 6.40 | 7.00 to 8.00
2 | C=CC(=O)Nc1cccc(Oc2nc(Nc3ccc4c(ccn4CCOC)c3)ncc2OC)c1 [Compound I-45a, N-(3-(5-methoxy-2-(1-(2-methoxyethyl)-1H-indol-5-ylamino)pyrimidin-4-yloxy)phenyl)acrylamide] | 6.40 to 6.70 | 7.00 to 8.00
3 | C=CC(=O)Nc1cccc(Oc2nc(Nc3ccc(N(C)[C@H]4CCN(CCS(C)(=O)=O)C4)cc3)ncc2OC)c1 [Compound I-57a, (S)—N-(3-(5-methoxy-2-(4-(methyl(1-(2-(methylsulfonyl)ethyl)pyrrolidin-3-yl)amino)phenylamino)pyrimidin-4-yloxy)phenyl)acrylamide] | 6.40 to 6.70 | ≥ 8.00
4 | C=CC(=O)Nc1cccc(Oc2nc(Nc3ccc4c(ccn4CCF)c3)ncc2OC)c1 [Compound I-43a, N-(3-(2-(1-(2-fluoroethyl)-1H-indol-5-ylamino)-5-methoxypyrimidin-4-yloxy)phenyl)acrylamide] | 6.40 to 6.70 | ≥ 8.00
5 | C=CC(=O)Nc1cccc(Oc2nc(Nc3ccc(N(C)[C@H]4CCN(CCOC)C4)cc3)ncc2OC)c1 [Compound I-42a, (S)—N-(3-(5-methoxy-2-(4-((1-(2-methoxyethyl)pyrrolidin-3-yl)(methyl)amino)phenylamino)pyrimidin-4-yloxy)phenyl)acrylamide] | ≤ 6.40 | ≥ 8.00
6 | C=CC(=O)Nc1cccc(Oc2nc(Nc3ccc(N(C)CCOC)cc3)nc3[nH]ccc23)c1 [Compound I-41a, N-(3-(2-(4-((2-methoxyethyl)(methyl)amino)phenylamino)-7H-pyrrolo[2,3-d]pyrimidin-4-yloxy)phenyl)acrylamide] | 6.40 to 6.70 | 7.00 to 8.00
7 | C=CC(=O)Nc1cccc(Oc2nc(Nc3cc(F)c(OCCOC)c(F)c3)nc3[nH]ccc23)c1 [Compound I-37a, N-(3-(2-(3,5-difluoro-4-(2-methoxyethoxy)phenylamino)-7H-pyrrolo[2,3-d]pyrimidin-4-yloxy)phenyl)acrylamide] | ≤ 6.40 | 7.00 to 8.00
8 | C=CC(=O)Nc1cccc(Oc2nc(Nc3ccc4c(c3)CCN4CCOC)nc3[nH]ccc23)c1 [Compound I-36a, N-(3-(2-(1-(2-methoxyethyl)indolin-5-ylamino)-7H-pyrrolo[2,3-d]pyrimidin-4-yloxy)phenyl)acrylamide] | 6.40 to 6.70 | 7.00 to 8.00
9 | C=CC(=O)Nc1cccc(Oc2nc(Nc3ccc(N(C)CCOC)nc3)nc3[nH]ccc23)c1 [Compound I-46a, N-(3-(2-(6-((2-methoxyethyl)(methyl)amino)pyridin-3-ylamino)-7H-pyrrolo[2,3-d]pyrimidin-4-yloxy)phenyl)acrylamide] | ≤ 6.40 | 7.00 to 8.00
10 | C=CC(=O)Nc1cccc(Oc2nc(Nc3ccc(N[C@H]4CCN(CCOC)C4)cc3)ncc2OC)c1 [Compound I-30a, (S)—N-(3-(5-methoxy-2-(4-(1-(2-methoxyethyl)pyrrolidin-3-ylamino)phenylamino)pyrimidin-4-yloxy)phenyl)acrylamide] | ≥ 6.70 | ≥ 8.00
11 | C=CC(=O)Nc1cccc(Oc2nc(Nc3ccc(N4CCN(CCS(C)(=O)=O)CC4)cc3)ncc2OC)c1 [Compound I-54a, N-(3-(5-methoxy-2-(4-(4-(2-(methylsulfonyl)ethyl)piperazin-1-yl)phenylamino)pyrimidin-4-yloxy)phenyl)acrylamide] | ≤ 6.40 | ≥ 8.00
12 | C=CC(=O)Nc1cccc(Oc2nc(Nc3ccc4c(c3)CC(=O)N4CCOC)ncc2OC)c1 [Compound I-52a, N-(3-(5-methoxy-2-(1-(2-methoxyethyl)-2-oxoindolin-5-ylamino)pyrimidin-4-yloxy)phenyl)acrylamide] | ≤ 6.40 | ≥ 8.00
13 | C=CC(=O)Nc1cccc(Oc2nc(Nc3ccc(N4CCN(CCOC)CC4)cc3)nc3[nH]ccc23)c1 [Compound I-47a, N-(3-(2-(4-(4-(2-methoxyethyl)piperazin-1-yl)phenylamino)-7H-pyrrolo[2,3-d]pyrimidin-4-yloxy)phenyl)acrylamide] | 6.40 to 6.70 | ≥ 8.00
14 | C=CC(=O)Nc1cccc(Oc2nc(Nc3ccc4c(c3)CN(CCOC)C4)ncc2OC)c1 [Compound I-50a, N-(3-(5-methoxy-2-(2-(2-methoxyethyl)isoindolin-5-ylamino)pyrimidin-4-yloxy)phenyl)acrylamide] | ≤ 6.40 | 7.00 to 8.00
15 | C=CC(=O)Nc1cccc(Oc2nc(Nc3ccc(N(C)CCOC)nc3)ncc2OC)c1 [Compound I-33a, N-(3-(5-methoxy-2-(6-((2-methoxyethyl)(methyl)amino)pyridin-3-ylamino)pyrimidin-4-yloxy)phenyl)acrylamide] | ≤ 6.40 | 7.00 to 8.00
16 | C=CC(=O)Nc1cccc(Oc2nc(Nc3ccc(N(CCC)CCOC)cc3)ncc2OC)c1 [Compound I-38a, N-(3-(5-methoxy-2-(4-((2-methoxyethyl)(propyl)amino)phenylamino)pyrimidin-4-yloxy)phenyl)acrylamide] | ≤ 6.40 | 7.00 to 8.00
17 | C=CC(=O)Nc1cccc(Oc2nc(Nc3ccc(N4CCN(C)CC4)c(F)c3)ncc2O)c1 [Compound I-23a, N-(3-(2-(3-fluoro-4-(4-methylpiperazin-1-yl)phenylamino)-5-hydroxypyrimidin-4-yloxy)phenyl)acrylamide] | ≤ 6.40 | 7.00 to 8.00
18 | C=CC(=O)Nc1cccc(Nc2nc(Nc3ccc(N[C@H]4CCN(CCOC)C4)cc3)ncc2OC)c1 [Compound I-31a, (S)—N-(3-(5-methoxy-2-(4-(1-(2-methoxyethyl)pyrrolidin-3-ylamino)phenylamino)pyrimidin-4-ylamino)phenyl)acrylamide] | ≤ 6.40 | ≥ 8.00
19 | C=CC(=O)Nc1cccc(Oc2nc(Nc3ccc(N(C)CCOC)cc3)ncc2OC)c1 [Compound I-35a, N-(3-(5-methoxy-2-(4-((2-methoxyethyl)(methyl)amino)phenylamino)pyrimidin-4-yloxy)phenyl)acrylamide] | 6.40 to 6.70 | ≥ 8.00
20 | C=CC(=O)Nc1cccc(Oc2nc(Nc3ccc(OCCS(C)(=O)=O)cc3)ncc2OC)c1 [Compound I-44a, N-(3-(5-methoxy-2-(4-(2-(methylsulfonyl)ethoxy)phenylamino)pyrimidin-4-yloxy)phenyl)acrylamide] | 6.40 to 6.70 | ≥ 8.00
21 | C=CC(=O)Nc1cccc(Oc2nc(Nc3ccc(N(C4CC4)[C@H]4CCN(CCOC)C4)cc3)ncc2OC)c1 [Compound I-53a, (S)—N-(3-(2-(4-(cyclopropyl(1-(2-methoxyethyl)pyrrolidin-3-yl)amino)phenylamino)-5-methoxypyrimidin-4-yloxy)phenyl)acrylamide] | ≤ 6.40 | ≥ 8.00

From patent publication US9920074B2 (ACEA BIOSCIENCES INC., priority 2013, dated 2018)
